# Target: T1, MPO (purified from human polynuclear leukocytes) (Homo sapiens, UniProt P05164)
# T1 construct: purified from human polynuclear leukocytes; purchased Calbiochem/EMD Biosciences; host or cells: human polynuclear leukocytes (natural source)
# Test: MPO Amplex Red Activity Assay
# Assay type: biochemical
# Details: Table 1A, 2 μM H2O2, pH 7.4
# Summary of the method: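 Potency is given as kinact/KI: kobs values from 600 s progress curves, minus the uninhibited rate, are fit against inhibitor concentration. Reactions use 2 μM H2O2, 30 μM Amplex Red, pH 7.4 phosphate buffer with NaCl, DTPA and 2% DMSO, started with […] human MPO. Readout is resorufin fluorescence, catalase background subtracted.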
# T1 sequence (P05164 279-745 limits assumed): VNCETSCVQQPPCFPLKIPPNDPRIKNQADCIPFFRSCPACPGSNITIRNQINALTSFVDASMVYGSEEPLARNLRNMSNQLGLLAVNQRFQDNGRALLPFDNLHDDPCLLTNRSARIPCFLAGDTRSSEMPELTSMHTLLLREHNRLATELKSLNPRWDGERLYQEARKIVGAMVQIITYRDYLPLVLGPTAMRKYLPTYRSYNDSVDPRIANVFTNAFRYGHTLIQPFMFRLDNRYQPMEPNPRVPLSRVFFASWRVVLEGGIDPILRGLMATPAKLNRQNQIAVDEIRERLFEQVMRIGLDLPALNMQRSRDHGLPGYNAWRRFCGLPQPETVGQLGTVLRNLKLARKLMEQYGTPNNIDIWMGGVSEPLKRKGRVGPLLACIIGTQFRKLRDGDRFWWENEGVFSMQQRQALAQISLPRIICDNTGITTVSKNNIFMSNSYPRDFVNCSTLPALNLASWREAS
# T1 sequence (P05164 165-273 limits assumed): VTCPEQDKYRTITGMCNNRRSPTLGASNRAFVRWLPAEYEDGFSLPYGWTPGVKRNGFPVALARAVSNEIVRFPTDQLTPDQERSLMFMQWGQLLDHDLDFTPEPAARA
row,Compound,MPO kinact/Ki
1,"COc1ccc(F)cc1-c1cc(=O)[nH]c(=S)n1CCCNC(=N)NC#N [Example 447, 1-cyano-3-{3-[6-(5-fluoro-2-methoxyphenyl)-4-oxo-2-thioxo-3,4-dihydropyrimidin-1(2H)-yl]propyl}guanidine]",17200 1/s per M
2,"N=C(N)NCCn1c(-c2cc(Cl)ccc2OCCO)cc(=O)[nH]c1=S [Example 448, 1-(2-{6-[5-chloro-2-(2-hydroxyethoxy)phenyl]-4-oxo-2-thioxo-3,4-dihydropyrimidin-1(2H)-yl}ethyl)guanidine]",6490 1/s per M
3,"CCNC(=N)NCCCn1c(-c2cc(Cl)ccc2OC)cc(=O)[nH]c1=S [Example 449, 1-{3-[6-(5-chloro-2-methoxyphenyl)-4-oxo-2-thioxo-3,4-dihydropyrimidin-1(2H)-yl]propyl}-2-ethylguanidine]",12000 1/s per M
4,"COc1ccc(Cl)cc1-c1cc(=O)[nH]c(=S)n1CCCNC(=N)N1CCCC1 [Example 450, N-{3-[6-(5-chloro-2-methoxyphenyl)-4-oxo-2-thioxo-3,4-dihydropyrimidin-1(2H)-yl]propyl}pyrrolidine-1-carboximidamide]",7730 1/s per M
5,"COc1ccc(Cl)cc1-c1cc(=O)[nH]c(=S)n1CCCNC(=N)NCC(C)(F)F [Example 451, 1-{3-[6-(5-chloro-2-methoxyphenyl)-4-oxo-2-thioxo-3,4-dihydropyrimidin-1(2H)-yl]propyl}-3-(2,2-difluoropropyl)guanidine]",16000 1/s per M
6,"COc1ccc(-c2cc(=O)[nH]c(=S)n2CCNC(=O)NC(=N)N)c(OC)c1 [Example 452, 1-carbamimidoyl-3-{2-[6-(2,4-dimethoxyphenyl)-4-oxo-2-thioxo-3,4-dihydropyrimidin-1(2H)-yl]ethyl}urea]",11600 1/s per M
7,"COc1ccc(-c2cc(=O)[nH]c(=S)n2CC(F)(F)CN=C(N)N)c(OC)c1 [Example 453, 2-{3-[6-(2,4-dimethoxyphenyl)-4-oxo-2-thioxo-3,4-dihydropyrimidin-1(2H)-yl]-2,2-difluoropropyl}guanidine]",27800 1/s per M

# From patent publication US9399626B2, “2-thiopyrimidinones” (Pfizer Inc., priority 2011, dated 2016)
